Laboratory results: patent publication US10619138B2, “Herbicide-resistant hydroxyphenylpyruvate dioxygenases” (BASF SE, priority 2013, dated 2020)

Tests used:
[1] = target: T1, Arabidopsis HPPD (SEQ ID NO: 42) (Arabidopsis thaliana, UniProt P93836); experiment: In vitro HPPD activity assay (HGA by HPLC), wildtype enzyme characterization; format: biochemical; conditions: normalized on Arabidopsis wild-type HPPD; reference enzyme
T1 construct: Arabidopsis (42); His tag; made in house; host or cells: E. coli BL21 (DE3)
T1 sequence (P93836 1-445): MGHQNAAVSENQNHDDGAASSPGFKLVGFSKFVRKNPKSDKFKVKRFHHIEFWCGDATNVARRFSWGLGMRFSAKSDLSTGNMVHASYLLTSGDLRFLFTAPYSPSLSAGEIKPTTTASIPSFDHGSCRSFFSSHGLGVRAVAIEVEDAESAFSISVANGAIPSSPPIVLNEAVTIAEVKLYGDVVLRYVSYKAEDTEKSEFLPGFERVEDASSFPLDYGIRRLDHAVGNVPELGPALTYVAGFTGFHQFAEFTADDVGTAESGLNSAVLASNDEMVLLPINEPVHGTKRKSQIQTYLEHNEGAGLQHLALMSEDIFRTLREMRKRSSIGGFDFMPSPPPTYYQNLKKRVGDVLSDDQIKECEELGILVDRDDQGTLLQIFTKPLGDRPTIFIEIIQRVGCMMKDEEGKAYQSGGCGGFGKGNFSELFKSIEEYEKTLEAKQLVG
Experimental: (§1) The activity assay for HPPD is based on the analysis of homogentisic acid by reversed phase HPLC.
(§2) The assay mixture can contain 150 mM potassium phosphate buffer pH 7.0, 50 mM L-ascorbic acid, 100 μM Catalase (Sigma-Aldrich), 1 μM FeSO4 and 0.2 units of purified HPPD enzyme in a total volume of 505 μl. 1 unit is defined as the amount of enzyme that is required to produce 1 nmol of HGA per minute at 20° C.
(§3) The reaction is allowed to proceed for 45 min at room temperature. The reaction is stopped by the addition of 50 μl of 4.5 M phosphoric acid. The sample is filtered using a […] pore size PVDF filtration device.
(§4) 5 μl of the cleared sample is analyzed on an UPLC HSS T3 column (particle size 1.8 μm, dimensions 2.1×50 mm; Waters) by isocratic elution using 90% 20 mM NaH2PO4 pH 2.2, 10% methanol (v/v).
(§5) HGA is detected electrochemically at 750 mV (mode: DC; polarity: positive) and quantified by integrating peak areas (Empower software; Waters).
Inhibitors are dissolved in DMSO (dimethylsulfoxide) to a concentration of 0.5 mM. From this stock solution serial five-fold dilutions are prepared in DMSO, which are used in the assay. The respective inhibitor solution accounts for 1% of the assay volume. […] Activities are normalized by setting the uninhibited enzyme activity to 100%. IC50 values are calculated using non-linear regression.
(§6) Using methods which are described in the above examples or well known in the art, purified, recombinant wildtype HPPD enzymes are characterized with respect to their kinetic properties and sensitivity towards HPPD inhibiting herbicides. Apparent michaelis constants (Km) and maximal reaction velocities (Vmax) are calculated by non-linear regression with the software GraphPad Prism 5 (GraphPad Software, La Jolla, USA) using a substrate inhibition model. […] Weighted means (by standard error) of Km and IC50 values are calculated from at least three independent experiments.
(§7) Field performance of the HPPD enzyme, which is used as a herbicide tolerance trait may depend not only on its lack of sensitivity towards HPPD inhibiting herbicides but also on its activity. To assess the potential performance of a herbicide tolerance trait a tolerance index (TI) is calculated using the following formula: […]
(§8) Easy comparison and ranking of each trait is enabled by normalizing tolerance indexes on Arabidopsis wild-type HPPD.

[2] = system: Algoriphagus HPPD (SEQ ID NO: 22); experiment: In vitro HPPD activity assay, tolerance index; format: biochemical, Algoriphagus machipongonensis; conditions: normalized on Arabidopsis wild-type HPPD
Experimental: as §1, §2, §3, §4, §5
(§9) Inhibitors are dissolved in DMSO (dimethylsulfoxide) to a concentration of 0.5 mM. From this stock solution serial five-fold dilutions are prepared in DMSO, which are used in the assay. The respective inhibitor solution accounts for 1% of the assay volume. Thus, final inhibitor concentrations range from 5 μM to 320 pM, respectively. Activities are normalized by setting the uninhibited enzyme activity to 100%. IC50 values are calculated using non-linear regression.
as §6, with “experiments. The Cheng-Prusoff equation for competitive inhibition (Cheng, Y. C.; Prusoff, W. H. Biochem Pharmacol 1973, 22, 3099-3108) is used to calculate dissociation constants (Ki).” for “experiments.”
as §7, §8

[3] = system: Belliella HPPD (SEQ ID NO: 12); experiment: In vitro HPPD activity assay, tolerance index; format: biochemical, Belliella baltica; conditions: normalized on Arabidopsis wild-type HPPD
Experimental: as §1, §2, §3, §4, §5, §9
as §6, with “experiments. The Cheng-Prusoff equation for competitive inhibition (Cheng, Y. C.; Prusoff, W. H. Biochem Pharmacol 1973, 22, 3099-3108) is used to calculate dissociation constants (Ki).” for “experiments.”
as §7, §8

[4] = system: Geodermatophilus HPPD (SEQ ID NO: 32); experiment: In vitro HPPD activity assay, tolerance index; format: biochemical, Geodermatophilus obscurus; conditions: normalized on Arabidopsis wild-type HPPD
Experimental: as §1, §2, §3, §4, §5, §9
as §6, with “experiments. The Cheng-Prusoff equation for competitive inhibition (Cheng, Y. C.; Prusoff, W. H. Biochem Pharmacol 1973, 22, 3099-3108) is used to calculate dissociation constants (Ki).” for “experiments.”
as §7, §8

[5] = system: Herpetosiphon HPPD (SEQ ID NO: 26); experiment: In vitro HPPD activity assay, tolerance index; format: biochemical, Herpetosiphon aurantiacus; conditions: normalized on Arabidopsis wild-type HPPD
Experimental: as §1, §2, §3, §4, §5, §9
as §6, with “experiments. The Cheng-Prusoff equation for competitive inhibition (Cheng, Y. C.; Prusoff, W. H. Biochem Pharmacol 1973, 22, 3099-3108) is used to calculate dissociation constants (Ki).” for “experiments.”
as §7, §8

[6] = system: Mucilaginibacter HPPD (SEQ ID NO: 28); experiment: In vitro HPPD activity assay, tolerance index; format: biochemical, Mucilaginibacter paludis; conditions: normalized on Arabidopsis wild-type HPPD
Experimental: as §1, §2, §3, §4, §5, §9
as §6, with “experiments. The Cheng-Prusoff equation for competitive inhibition (Cheng, Y. C.; Prusoff, W. H. Biochem Pharmacol 1973, 22, 3099-3108) is used to calculate dissociation constants (Ki).” for “experiments.”
as §7, §8

[7] = system: Microscilla HPPD (SEQ ID NO: 20); experiment: In vitro HPPD activity assay, tolerance index; format: biochemical, Microscilla marina; conditions: normalized on Arabidopsis wild-type HPPD
Experimental: as §1, §2, §3, §4, §5, §9
as §6, with “experiments. The Cheng-Prusoff equation for competitive inhibition (Cheng, Y. C.; Prusoff, W. H. Biochem Pharmacol 1973, 22, 3099-3108) is used to calculate dissociation constants (Ki).” for “experiments.”
as §7, §8

[8] = system: Nitritalea HPPD (SEQ ID NO: 14); experiment: In vitro HPPD activity assay, tolerance index; format: biochemical, Nitritalea halalkaliphila; conditions: normalized on Arabidopsis wild-type HPPD
Experimental: as §1, §2, §3, §4, §5, §9
as §6, with “experiments. The Cheng-Prusoff equation for competitive inhibition (Cheng, Y. C.; Prusoff, W. H. Biochem Pharmacol 1973, 22, 3099-3108) is used to calculate dissociation constants (Ki).” for “experiments.”
as §7, §8

[9] = system: Pontibacter HPPD (SEQ ID NO: 16); experiment: In vitro HPPD activity assay, tolerance index; format: biochemical, Pontibacter sp.; conditions: normalized on Arabidopsis wild-type HPPD
Experimental: as §1, §2, §3, §4, §5, §9
as §6, with “experiments. The Cheng-Prusoff equation for competitive inhibition (Cheng, Y. C.; Prusoff, W. H. Biochem Pharmacol 1973, 22, 3099-3108) is used to calculate dissociation constants (Ki).” for “experiments.”
as §7, §8

[10] = system: Scenedesmus HPPD (SEQ ID NO: 4); experiment: In vitro HPPD activity assay, tolerance index; format: biochemical, Scenedesmus obliquus; conditions: normalized on Arabidopsis wild-type HPPD
Experimental: as §1, §2, §3, §4, §5, §9
as §6, with “experiments. The Cheng-Prusoff equation for competitive inhibition (Cheng, Y. C.; Prusoff, W. H. Biochem Pharmacol 1973, 22, 3099-3108) is used to calculate dissociation constants (Ki).” for “experiments.”
as §7, §8

Compound | TI (normalized tolerance index) [1] | TI (normalized tolerance index) [2] | TI (normalized tolerance index) [3] | TI (normalized tolerance index) [4] | TI (normalized tolerance index) [5] | TI (normalized tolerance index) [6] | TI (normalized tolerance index) [7] | TI (normalized tolerance index) [8] | TI (normalized tolerance index) [9] | TI (normalized tolerance index) [10]
COCCOCc1nc(C(F)(F)F)ccc1C(=O)C1=C(O)C2CCC(C2)C1=O (centres unmarked) [Inhibitor 3, 2-hydroxy-3-[2-(2-methoxyethoxymethyl)-6-(trifluoromethyl)pyridine-3-carbonyl]bicyclo[3.2.1]oct-2-en-4-one] | 1 | 29 | 10 | 7.4 | 2 | 6.9 | 6.7 | 1.1 | 1.7 | 0.9
CCS(=O)(=O)c1cc(C(F)(F)F)ccc1C1=C(O)c2ncccc2C(C)(C)S1(=O)=O [Inhibitor 5, 7-[2-ethylsulfonyl-4-(trifluoromethyl)phenyl]-5,5-dimethyl-6,6-dioxo-thiopyrano[4,3-b]pyridin-8-ol] | 1 | 24.7 | 10.6 | 5.6 | 1 | 5.2 | 17.7 | 3.2 | 2.5 | 0.6
